Data taken from patent publication US7517890B2, “GTPase inhibitors and methods of use” (Children's Hospital Medical Center, priority 2003, dated 2009).

Tests used:
[1] = target: T1, RhoA binding to PDZ-RhoGEF (Homo sapiens, UniProt P61586); test: Complex formation assay, RhoA with PDZ-RhoGEF; settings: varying concentrations of compound
T1 construct: made in house; host or cells: Cos-7 (PDZ-RhoGEF, used as lysate)
Description: Trio and Tiam-1 co-precipitate with GST-Rac1, but not GST or GST-Cdc42.
In FIG. 2A, 0.5 μg of (His)6-tagged TrioN was incubated with GST alone or nucleotide-free, GST-fused Cdc42 or Rac1 (2 μg) in the binding buffer containing different concentrations of NSC23766 and 10 μl suspended glutathione-agarose. After an incubation at 4° C. for 30 minutes, the beads associated (His)6-TrioN were detected by anti-His Western blotting. The blots were quantified by densitometry analysis. The results are representative of three measurements. In FIG. 2B, myc-tagged Tiam1 expressed in Cos-7 cell lysates were incubated with (His)6-Rac1 in the presence of increasing concentrations of NSC23766. The association of Rac1 with Tiam1 was examined by anti-His blot after anti-myc immunoprecipitation. In FIG. 2C, the AU-tagged PDZ-RhoGEF was expressed in Cos-7 lysates and incubated with GST or GST-RhoA in the presence of varying concentrations of NSC23766. The RhoA associated PDZ-RhoGEF was probed with anti-AU antibody after affinity precipitation by glutathione agarose beads. In FIG. 2D, (His)6-Rac1 loaded with GTPγ S was incubated with GST-BcrGAP or GST-PAK1 (PBD) in the presence or absence of 200 μM NSC23766 and the interaction with GSTBcrGAP or GST-PAK1 was probed by anti-His blot after affinity precipitation by glutathione agarose beads.

[2] = target: PDZ-RhoGEF-stimulated mantGDP/GTP exchange of RhoA (Homo sapiens, UniProt P61586); test: In vitro guanine nucleotide exchange assay (mant-GDP), RhoA / PDZ-RhoGEF; type: biochemical; settings: 200 μM compound
Chain of PDZ-RhoGEF-stimulated mantGDP/GTP exchange of RhoA (P61586 whole entry): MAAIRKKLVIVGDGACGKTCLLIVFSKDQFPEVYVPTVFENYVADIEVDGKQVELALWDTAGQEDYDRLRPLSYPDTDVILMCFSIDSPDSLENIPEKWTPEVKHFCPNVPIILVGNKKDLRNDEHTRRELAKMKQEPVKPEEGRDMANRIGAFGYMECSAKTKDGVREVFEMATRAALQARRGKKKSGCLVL
Description: In vitro guanine nucleotide exchange assay. For these, 200 nM Rac1 loaded with mant-GDP is incubated at 25° C. in an exchange buffer containing 100 mM NaCl, 5 mM MgCl2, 50 mM Tris-HCl (pH 7.6), and 0.5 mM GTP in the absence or presence of 200 nM Trio. The mant-GDP fluorescence changes in the course of the exchange reactions are monitored with an excitation wavelength at 360 nm and the emission wavelength at 440 nm by a Cary Ellipse fluorescence spectrometer (Varian, Inc.).
In FIG. 3. […] In FIG. 3A, NSC23766 inhibited TrioN catalyzed GDP/GTP exchange of Rac1 in a dose dependent manner. 200 nM Rac1 loaded with mant-GDP was incubated at 25° C. in an exchange buffer containing 100 mM NaCl, 5 mM MgCk2, 50 mM Tris-HCl (PH 7.6), and 0.5 mM GTP in the absence (top line) or presence of 100 nM TrioN. Increasing concentrations of NSC23766 were included in the exchange buffer as indicated. In FIG. 3B, NSC23766 had no effect on the Intersectin-stimulated GDP/GTP exchange of Cdc42. 200 nM Cdc42 loaded with mant-GDP was incubated in the exchange buffer in the absence (top line) or presence of 100 nM Intersectin with or without 200 μM NSC23766. In FIG. 3C, the exchange reaction of RhoA catalyzed by PDZ-RhoGEF was carried out similarly in the presence or absence of 200 μM NSC23766.

NIH 3T3 cells = test: Cell growth assay, wild type and RacL61- or GEF-transfected NIH 3T3 cells; type: cell-based; settings: 5% serum, 100 μM compound
[3] = tested on: Tiam1-expressing NIH 3T3 cells; test: Transformation of GEF-expressing NIH 3T3 cells (foci, soft agar); type: cell-based; settings: foci: 50 μM every two days, 14 days, soft agar: 100 μM
PC-3 cells [4] = test: Matrigel cell invasion assay; settings: 25 μM compound, 24 hrs
Description: Cell invasion assays. The cell invasion assays are performed using 6.4-mm Biocoat Matrigel invasion chambers with 8.0-micron pore size PET membrane (Becton-Dickinson) according to the manufactory instructions. Briefly, 5×10^4 cells are resuspended in 0.5 ml of serum free culture medium and added to the upper chamber. 10% fetal bovine serum in the culture medium is used as a chemo-attractant in the lower chamber. After the cells are incubated for overnight, the number of cell passed through the Matrigel is counted.
Cells invaded through Matrigel matrix were visualized with Giemasa staining.

PC-3 cells [5] = test: PC-3 cell growth (CellTiter 96 AQueous assay); settings: 5% serum, indicated concentrations of compound
Description: Cell growth assay. […] The growth rate of the prostate PC-3 cells is measured by the CellTiter 96 AQueous assay (Promega). 1,500 cells/well in 200 μl of 5% FBS medium are plated in 96-well plates and are grown under normal conditions. Cultures are assayed in 0, 1, 2, 3, 4, or 5 days by the addition of 20 μl of the combined MTS/PMS solution followed by incubation for one hour at 37° C. Absorbency is measured at a wavelength of 490 nm on an automated microplate reader.
The cells were split in triplicate in 96-wells at 1.5×10^3 cells per well. Cell numbers were assayed by using CellTiter 96 AQueous cell proliferation assay kit in different days.

PC-3 cells [6] = test: Anchorage independent growth of PC-3 cells in soft agar
Description: Anchorage independent growth.
The cells were split in triplicate in 96-wells at 1.5×10^3 cells per well.

Swiss 3T3 cells = test: Immunofluorescence of PDGF-stimulated lamellipodia formation (actin staining); settings: for PDGF induction of lamellipodia at the cell edges in the presence of compound: 100 μM compound, 10 nM PDGF
Description: Immunofluorescence. […] The cellular actin is stained with TRITC-labeled phalloidin (Sigma) at 10 μg/ml in PBS for 40 min at room temperature. The actin and cell morphological changes are visualized by fluorescence microscopy.
The cells were fixed and stained with Rhodamine-labeled phalloidin.

endogenous RhoA = endogenous RhoA (Mus musculus, UniProt Q9QUI0); test: Endogenous Rho GTPase activity assay (GST-Rhotekin pull-down), RhoA in NIH 3T3 cells; settings: NIH 3T3 cells in 10% serum
Chain of endogenous RhoA (Q9QUI0 whole entry): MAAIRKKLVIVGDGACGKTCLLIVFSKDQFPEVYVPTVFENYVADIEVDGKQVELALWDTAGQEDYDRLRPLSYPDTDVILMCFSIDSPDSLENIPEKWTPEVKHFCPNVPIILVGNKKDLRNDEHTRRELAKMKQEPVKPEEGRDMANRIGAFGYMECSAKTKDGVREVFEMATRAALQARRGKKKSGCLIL
Description: Endogenous Rho GTPase activity assay. […] Cells are grown in log phase in a 10 cm dish, and are starved in 0.5% serum medium or indicated otherwise for 24 hrs prior to lysis in a buffer containing 20 mM Tris-HCl (pH 7.6), 100 mM NaCl, 10 mM MgCl2, 1% NP-40, 10% glycerol, and 1× proteases inhibitor cocktail (Roch). Lysates are clarified and the protein concentrations are normalized. The cell lysates containing equal amount of proteins are incubated with 10 μg GST- or His6-fusion probes for 40 min at 4° C. under constant rotation. The beads are washed twice with the lysis buffer, and the bound-Rho GTPases are detected by anti-Rac1 (Upstate), or anti-Cdc42 (BD Transduction Laboratories) Western blotting. Quantification of the Western blots is carried out using a LAS-1000 luminescent image analyzer (Fujifilm medical system, USA, Inc.).
Cell lysates containing similar amount of Rac1, Cdc42 or RhoA were incubated with the agarose immobilized GST-PAK1, GST-WASP or GST-Rhotekin, and the co-precipitates were subjected to anti-Rac1, Cdc42 or RhoA Western blot analysis to reveal the amount of GTP-Bound Rho proteins.

T1 sequence (P61586 whole entry): as the sequence (P61586 whole entry) above

## CCN(CC)CCCC(C)Nc1nc(C)cc(Nc2ccc3nc(C)cc(N)c3c2)n1 (stereo not drawn) [compound 23766, N^6-(2-((4-(diethylamino)-1-methylbutyl)amino)-6-methyl-4-pyrimidinyl)-2-methyl-4,6-quinolinediamine]
[1]
  effect on RhoA binding to PDZ-RhoGEF: does not interfere
[2]
  effect on PDZ-RhoGEF-stimulated mantGDP/GTP exchange of RhoA: little impact
NIH 3T3 cells
  growth of wild type NIH 3T3 cells: slow the growth
  growth rate of Rac1L61 expressing NIH 3T3 cells: no effect
NIH 3T3 cells; GEF expressing NIH 3T3 cells
  cell growth induced by the Rac specific GEF Trio: capable of inhibiting
[3]
  Rac GEF stimulated cell growth and transformation: specifically inhibited
PC-3 cells [4]
  PC-3 cell invasion: significantly inhibits
PC-3 cells [5]
  proliferation rates of PC-3 cells: inhibited by compound 23766 in a dose dependent manner
PC-3 cells [6]
  size of colonies of treated cells versus untreated: much smaller
PC-3 cells [6]; 25 μM compound
  colony-forming activity remaining: Approximately 10%
PC-3 cells [6]; 50 μM compound
  colony-forming activity remaining: ~1%
Swiss 3T3 cells; 50 μM compound, overnight serum starvation, 10 nM PDGF (FIG. 4C legend)
  PDGF-stimulated lamellipodia formation: inhibited PDGF-stimulated lamellipodia formation
Swiss 3T3 cells; 5 min
  PDGF induction of lamellipodia at the cell edges in the presence of compound: only marginally effective
Swiss 3T3 cells; 10 min
  PDGF induction of lamellipodia at the cell edges in the presence of compound: completely ineffective
Endogenous RhoA
  level of RhoA-GTP in cells: slightly increased level
